Assay results reported in patent publication US20210255193A1, “LYSINE REACTIVE PROBES AND USES THEREOF” (The Scripps Research Institute, priority 2017, published 2021).

Columns and labels:
Assay in all cases: competitive isoTOP-ABPP
Type in all cases: binding
[1] = target: T1, PNPO Pyridoxine-5-phosphate oxidase (Homo sapiens, UniProt Q9NVS9); conditions: for isoTOP-ABPP ratio (R) at liganded lysine Q9NVS9_K100: 50 uM, in vitro, sol, 231; for isoTOP-ABPP ratio, lysine Q9NVS9_K100: 50 uM_231_sol_in vitro
T1 construct: endogenous in cells; host or cells: MDA-MB-231 (soluble fraction of lysate)
T1 sequence (Q9NVS9 1-261): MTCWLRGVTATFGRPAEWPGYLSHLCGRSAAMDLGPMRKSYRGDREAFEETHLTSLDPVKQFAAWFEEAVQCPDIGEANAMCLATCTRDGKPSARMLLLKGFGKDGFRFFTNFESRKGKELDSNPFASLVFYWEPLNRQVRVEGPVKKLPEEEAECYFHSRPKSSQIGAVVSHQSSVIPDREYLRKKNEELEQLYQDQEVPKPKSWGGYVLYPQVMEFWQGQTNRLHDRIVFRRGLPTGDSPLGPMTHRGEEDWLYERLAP
Summary of the method: (§1)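 Lysine engagement is reported as R, the MS1 peak-area ratio of heavy-tagged DMSO to light-tagged compound samples. Final fragment concentrations were 50 μM for activated esters and 100 μM for guanidinylating agents; STP-alkyne probe 0.1 mM, 1 h.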

EEF2 Elongation factor 2 = target: T2, EEF2 Elongation factor 2 (Homo sapiens, UniProt P13639); conditions: for isoTOP-ABPP ratio (R) at liganded lysine P13639_K235 / isoTOP-ABPP ratio (R) at liganded lysine P13639_K318: 50 uM, in vitro, sol, 231; for isoTOP-ABPP ratio, lysine P13639_K235 / isoTOP-ABPP ratio, lysine P13639_K318: 50 uM_231_sol_in vitro
T2 construct: isoTOP-ABPP experiments performed in cell lysates (in vitro); endogenous in cells; host or cells: soluble proteome of human cancer cell lines (MDA-MB-231; Ramos and Jurkat also prepared)
Summary of the method: as §1

FAH Fumarylacetoacetase = target: T3, FAH Fumarylacetoacetase (Homo sapiens, UniProt P16930); conditions: for isoTOP-ABPP ratio (R) at liganded lysine P16930_K241: 50 uM, in vitro, sol, 231; for isoTOP-ABPP ratio, lysine P16930_K241: 50 uM_231_sol_in vitro
T3 construct: isoTOP-ABPP experiments performed in cell lysates (in vitro); endogenous in cells; host or cells: soluble proteome of human cancer cell lines (MDA-MB-231; Ramos and Jurkat also prepared)
T3 sequence (P16930 1-419): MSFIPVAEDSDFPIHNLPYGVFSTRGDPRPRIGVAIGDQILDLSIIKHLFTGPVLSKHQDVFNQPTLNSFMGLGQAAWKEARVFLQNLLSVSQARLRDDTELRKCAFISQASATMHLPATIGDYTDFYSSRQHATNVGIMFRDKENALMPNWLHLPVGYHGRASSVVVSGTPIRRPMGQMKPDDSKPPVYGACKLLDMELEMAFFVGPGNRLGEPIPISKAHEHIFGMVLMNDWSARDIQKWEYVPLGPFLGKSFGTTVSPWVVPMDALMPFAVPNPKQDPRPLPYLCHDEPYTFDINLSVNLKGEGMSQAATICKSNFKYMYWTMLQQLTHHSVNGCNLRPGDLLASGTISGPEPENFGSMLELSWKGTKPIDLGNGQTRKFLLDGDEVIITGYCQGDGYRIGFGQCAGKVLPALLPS
Summary of the method: as §1

[2] = target: T4, GOLGB1 Golgin subfamily B member 1 (Homo sapiens, UniProt Q14789); conditions: for isoTOP-ABPP ratio (R) at liganded lysine Q14789_K103: 50 uM, in vitro, sol, 231; for isoTOP-ABPP ratio, lysine Q14789_K103: 50 uM_231_sol_in vitro
T4 construct: isoTOP-ABPP experiments performed in cell lysates (in vitro); endogenous in cells; host or cells: soluble proteome of human cancer cell lines (MDA-MB-231, Ramos, Jurkat)
T4 sequence (Q14789 whole entry): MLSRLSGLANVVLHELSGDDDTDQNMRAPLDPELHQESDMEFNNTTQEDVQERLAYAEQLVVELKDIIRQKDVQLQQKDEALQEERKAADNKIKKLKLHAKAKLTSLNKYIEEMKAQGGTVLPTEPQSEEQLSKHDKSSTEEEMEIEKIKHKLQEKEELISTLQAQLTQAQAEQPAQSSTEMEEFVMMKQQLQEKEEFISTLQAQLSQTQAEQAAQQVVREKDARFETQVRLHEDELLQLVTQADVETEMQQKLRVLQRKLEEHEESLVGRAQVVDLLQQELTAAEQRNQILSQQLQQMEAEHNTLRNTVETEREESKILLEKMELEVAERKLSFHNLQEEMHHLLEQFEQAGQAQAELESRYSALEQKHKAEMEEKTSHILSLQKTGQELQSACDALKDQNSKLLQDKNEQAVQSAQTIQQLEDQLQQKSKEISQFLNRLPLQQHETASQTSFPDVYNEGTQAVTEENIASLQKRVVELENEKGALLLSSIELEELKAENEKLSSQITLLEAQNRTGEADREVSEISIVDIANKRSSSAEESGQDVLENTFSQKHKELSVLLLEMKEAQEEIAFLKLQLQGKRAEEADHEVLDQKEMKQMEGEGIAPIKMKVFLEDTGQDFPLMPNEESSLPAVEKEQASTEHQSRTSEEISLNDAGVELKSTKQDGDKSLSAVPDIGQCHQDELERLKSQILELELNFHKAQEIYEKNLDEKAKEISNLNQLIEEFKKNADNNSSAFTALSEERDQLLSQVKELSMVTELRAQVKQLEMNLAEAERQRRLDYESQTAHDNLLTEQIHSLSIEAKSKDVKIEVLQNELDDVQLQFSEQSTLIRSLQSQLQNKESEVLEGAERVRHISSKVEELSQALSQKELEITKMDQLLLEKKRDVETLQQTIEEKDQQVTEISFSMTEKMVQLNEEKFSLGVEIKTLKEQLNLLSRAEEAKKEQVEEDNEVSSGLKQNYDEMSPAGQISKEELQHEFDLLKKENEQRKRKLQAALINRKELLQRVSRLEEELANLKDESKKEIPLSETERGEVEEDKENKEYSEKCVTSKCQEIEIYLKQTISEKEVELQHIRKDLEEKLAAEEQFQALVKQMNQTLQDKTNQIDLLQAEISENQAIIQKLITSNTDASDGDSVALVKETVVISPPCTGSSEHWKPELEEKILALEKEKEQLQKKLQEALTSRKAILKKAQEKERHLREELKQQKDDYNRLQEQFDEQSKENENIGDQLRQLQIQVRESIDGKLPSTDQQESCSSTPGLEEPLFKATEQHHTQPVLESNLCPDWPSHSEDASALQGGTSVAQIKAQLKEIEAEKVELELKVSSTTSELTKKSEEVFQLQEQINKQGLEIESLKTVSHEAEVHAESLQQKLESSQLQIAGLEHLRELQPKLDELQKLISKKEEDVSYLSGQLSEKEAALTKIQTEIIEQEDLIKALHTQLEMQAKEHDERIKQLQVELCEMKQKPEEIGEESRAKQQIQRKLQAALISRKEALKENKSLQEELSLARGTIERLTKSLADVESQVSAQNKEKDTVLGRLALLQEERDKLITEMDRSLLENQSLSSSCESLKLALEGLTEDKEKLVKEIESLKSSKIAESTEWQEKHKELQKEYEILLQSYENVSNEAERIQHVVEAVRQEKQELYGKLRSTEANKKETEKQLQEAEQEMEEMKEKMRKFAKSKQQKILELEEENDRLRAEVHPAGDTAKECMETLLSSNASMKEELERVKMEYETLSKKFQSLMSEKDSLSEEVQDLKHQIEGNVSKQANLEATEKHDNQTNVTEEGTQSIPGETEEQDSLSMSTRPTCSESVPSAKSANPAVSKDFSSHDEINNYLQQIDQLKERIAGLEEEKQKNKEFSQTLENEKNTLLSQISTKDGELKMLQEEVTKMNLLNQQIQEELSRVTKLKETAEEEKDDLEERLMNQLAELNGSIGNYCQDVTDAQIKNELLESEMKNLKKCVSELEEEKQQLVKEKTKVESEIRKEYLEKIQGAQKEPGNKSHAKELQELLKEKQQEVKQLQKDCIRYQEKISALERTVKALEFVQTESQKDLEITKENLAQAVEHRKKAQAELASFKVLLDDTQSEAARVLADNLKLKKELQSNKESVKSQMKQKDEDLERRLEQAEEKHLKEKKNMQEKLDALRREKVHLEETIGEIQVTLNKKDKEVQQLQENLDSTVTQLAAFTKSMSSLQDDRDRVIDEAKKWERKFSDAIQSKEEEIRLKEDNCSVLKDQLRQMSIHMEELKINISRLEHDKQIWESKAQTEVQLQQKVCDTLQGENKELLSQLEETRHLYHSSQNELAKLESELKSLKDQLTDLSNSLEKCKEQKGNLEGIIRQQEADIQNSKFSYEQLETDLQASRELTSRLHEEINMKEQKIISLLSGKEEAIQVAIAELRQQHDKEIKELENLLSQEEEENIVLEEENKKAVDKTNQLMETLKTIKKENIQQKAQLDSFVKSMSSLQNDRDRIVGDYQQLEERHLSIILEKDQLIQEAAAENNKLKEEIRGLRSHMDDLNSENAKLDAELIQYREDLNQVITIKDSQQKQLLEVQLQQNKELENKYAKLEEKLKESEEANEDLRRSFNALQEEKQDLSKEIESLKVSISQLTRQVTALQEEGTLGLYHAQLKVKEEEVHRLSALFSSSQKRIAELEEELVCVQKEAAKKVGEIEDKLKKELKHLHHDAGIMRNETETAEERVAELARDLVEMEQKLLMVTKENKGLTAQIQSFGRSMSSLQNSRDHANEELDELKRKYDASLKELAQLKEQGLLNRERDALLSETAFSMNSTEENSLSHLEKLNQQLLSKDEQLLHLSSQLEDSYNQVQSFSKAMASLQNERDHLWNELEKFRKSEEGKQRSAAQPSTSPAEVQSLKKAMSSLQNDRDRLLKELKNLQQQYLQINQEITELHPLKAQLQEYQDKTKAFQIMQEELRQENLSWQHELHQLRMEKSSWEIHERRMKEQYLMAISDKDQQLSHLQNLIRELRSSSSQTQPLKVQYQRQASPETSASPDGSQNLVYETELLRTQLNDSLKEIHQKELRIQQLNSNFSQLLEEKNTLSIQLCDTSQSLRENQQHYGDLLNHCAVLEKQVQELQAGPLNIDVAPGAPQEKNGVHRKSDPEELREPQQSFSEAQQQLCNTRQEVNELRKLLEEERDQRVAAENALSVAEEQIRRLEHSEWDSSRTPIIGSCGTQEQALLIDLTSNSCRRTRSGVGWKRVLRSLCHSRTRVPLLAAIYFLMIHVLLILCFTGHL
Summary of the method: as §1

[3] = target: T5, UCHL5 Ubiquitin carboxyl-terminal hydrolase isozyme L5 (Homo sapiens, UniProt Q9Y5K5); conditions: for isoTOP-ABPP ratio (R) at liganded lysine Q9Y5K5_K323: 50 uM, in vitro, sol, 231; for isoTOP-ABPP ratio, lysine Q9Y5K5_K323: 50 uM_231_sol_in vitro
T5 construct: endogenous in cells; host or cells: MDA-MB-231 (soluble fraction of lysate)
T5 sequence (Q9Y5K5 1-329): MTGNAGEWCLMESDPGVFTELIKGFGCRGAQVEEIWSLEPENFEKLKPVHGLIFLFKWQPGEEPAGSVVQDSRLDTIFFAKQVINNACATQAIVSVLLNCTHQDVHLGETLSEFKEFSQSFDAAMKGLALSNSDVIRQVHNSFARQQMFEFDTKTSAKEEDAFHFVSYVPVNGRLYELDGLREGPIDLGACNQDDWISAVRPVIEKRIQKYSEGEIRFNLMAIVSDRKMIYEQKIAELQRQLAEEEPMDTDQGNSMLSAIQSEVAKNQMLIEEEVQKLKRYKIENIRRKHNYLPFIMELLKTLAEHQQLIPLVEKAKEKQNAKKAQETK
Summary of the method: as §1

[4] = target: T6, NPEPPS Puromycin-sensitive aminopeptidase (Homo sapiens, UniProt P55786); conditions: for isoTOP-ABPP ratio (R) at liganded lysine P55786_K712: 50 uM, in vitro, sol, 231; for isoTOP-ABPP ratio, lysine P55786_K712: 50 uM_231_sol_in vitro
T6 construct: isoTOP-ABPP experiments performed in cell lysates (in vitro); endogenous in cells; host or cells: soluble proteome of human cancer cell lines (MDA-MB-231, Ramos, Jurkat)
T6 sequence (P55786 whole entry): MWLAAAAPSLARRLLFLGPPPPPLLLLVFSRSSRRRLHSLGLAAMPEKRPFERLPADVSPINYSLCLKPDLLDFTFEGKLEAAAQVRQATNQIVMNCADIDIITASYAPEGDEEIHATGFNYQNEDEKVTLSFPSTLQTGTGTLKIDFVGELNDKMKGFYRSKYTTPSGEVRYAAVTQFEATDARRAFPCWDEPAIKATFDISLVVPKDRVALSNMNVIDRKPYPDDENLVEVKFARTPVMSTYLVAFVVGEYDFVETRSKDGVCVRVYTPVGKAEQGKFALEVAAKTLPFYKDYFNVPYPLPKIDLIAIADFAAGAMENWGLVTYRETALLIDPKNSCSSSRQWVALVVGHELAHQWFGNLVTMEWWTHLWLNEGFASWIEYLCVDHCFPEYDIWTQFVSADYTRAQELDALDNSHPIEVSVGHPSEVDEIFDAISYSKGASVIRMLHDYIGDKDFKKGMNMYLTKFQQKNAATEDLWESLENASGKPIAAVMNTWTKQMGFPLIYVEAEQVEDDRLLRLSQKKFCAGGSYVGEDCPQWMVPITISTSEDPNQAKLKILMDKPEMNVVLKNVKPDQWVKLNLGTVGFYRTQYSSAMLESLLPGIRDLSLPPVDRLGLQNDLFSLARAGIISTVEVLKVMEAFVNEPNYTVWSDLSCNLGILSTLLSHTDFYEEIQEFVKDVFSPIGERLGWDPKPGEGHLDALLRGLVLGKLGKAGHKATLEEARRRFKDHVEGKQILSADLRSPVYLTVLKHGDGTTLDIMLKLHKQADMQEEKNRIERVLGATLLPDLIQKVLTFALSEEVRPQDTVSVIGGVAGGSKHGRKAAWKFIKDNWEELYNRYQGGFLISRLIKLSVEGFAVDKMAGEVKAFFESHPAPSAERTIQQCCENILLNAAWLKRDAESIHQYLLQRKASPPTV
Summary of the method: as §1

| SMILES | isoTOP-ABPP ratio (R) at liganded lysine Q9NVS9_K100 [1] | isoTOP-ABPP ratio (R) at liganded lysine P13639_K235 (EEF2 Elongation factor 2) | isoTOP-ABPP ratio (R) at liganded lysine P13639_K318 (EEF2 Elongation factor 2) | isoTOP-ABPP ratio (R) at liganded lysine P16930_K241 (FAH Fumarylacetoacetase) | isoTOP-ABPP ratio (R) at liganded lysine Q14789_K103 [2] | isoTOP-ABPP ratio (R) at liganded lysine Q9Y5K5_K323 [3] | isoTOP-ABPP ratio (R) at liganded lysine P55786_K712 [4] | isoTOP-ABPP ratio, lysine Q9NVS9_K100 [1] | isoTOP-ABPP ratio, lysine P13639_K235 (EEF2 Elongation factor 2) | isoTOP-ABPP ratio, lysine P13639_K318 (EEF2 Elongation factor 2) | isoTOP-ABPP ratio, lysine P16930_K241 (FAH Fumarylacetoacetase) | isoTOP-ABPP ratio, lysine Q14789_K103 [2] | isoTOP-ABPP ratio, lysine Q9Y5K5_K323 [3] | isoTOP-ABPP ratio, lysine P55786_K712 [4] |
| --- | --- | --- | --- | --- | --- | --- | --- | --- | --- | --- | --- | --- | --- | --- |
| O=C(Oc1ccc([N+](=O)[O-])cc1[N+](=O)[O-])c1ccccc1Nc1cccc(C(F)(F)F)c1 [fragment 40, 2,4-Dinitrophenyl 2-((3-(trifluoromethyl)phenyl)amino)benzoate] | 0.9 | 0.9 | 0.9 | 1.4 | 0.9 | 1.0 | 1.0 |  |  |  |  |  |  |  |
| CC(C)(C)OC(=O)NCCCC(=O)Oc1ccc([N+](=O)[O-])cc1[N+](=O)[O-] [fragment 41, 2,4-Dinitrophenyl 4-((tert-butoxycarbonyl)amino)butanoate] | 1.0 | 1.0 | 1.1 | 1.4 | 1.1 | 1.0 | 1.5 |  |  |  |  |  |  |  |
| O=C(Oc1ccc([N+](=O)[O-])cc1[N+](=O)[O-])C(c1ccccc1)(c1ccccc1)c1ccccc1 [fragment 42, 2,4-Dinitrophenyl 2,2,2-triphenylacetate] | 0.9 | 1.0 | 1.0 | 0.9 | 0.9 | 1.0 | 0.9 |  |  |  |  |  |  |  |
| CC(=O)Oc1ccc([N+](=O)[O-])cc1[N+](=O)[O-] [fragment 43, 2,4-Dinitrophenyl acetate] | 1.0 | 1.1 | 1.2 | 1.4 | 1.0 | 1.0 | 2.3 |  |  |  |  |  |  |  |
| N#Cc1ccc(C(=O)Oc2ccc([N+](=O)[O-])cc2[N+](=O)[O-])cc1 [fragment 44, 2,4-Dinitrophenyl 4-cyanobenzoate] |  |  |  |  |  |  |  | 0.9 | 1.0 | 1.1 | 2.5 | 0.9 | 0.9 | 1.0 |
| O=C(CCc1ccc2c(c1)OCO2)Oc1ccc([N+](=O)[O-])cc1[N+](=O)[O-] [fragment 45, 2,4-Dinitrophenyl 3-(benzo[d][1,3]dioxol-5-yl)propanoate] |  |  |  |  |  |  |  | 1.0 | 1.0 | 1.0 | 1.3 | 1.0 | 1.5 | 1.3 |
| O=C(ON1C(=O)CCC1=O)c1cc(C(F)(F)F)cc(C(F)(F)F)c1 [fragment 46, 3,5-Bis(trifluoromethyl)benzoic acid NHS ester] |  |  |  |  |  |  |  | 1.0 | 1.3 | 1.1 | 8.1 | 1.2 | 1.0 | 1.3 |
| O=C(Oc1c(F)c(F)c(C(F)(F)F)c(F)c1F)c1cc(C(F)(F)F)cc(C(F)(F)F)c1 [fragment 47, 2,3,5,6-Tetrafluoro-4-(trifluoromethyl)phenyl 3,5-bis(trifluoromethyl)benzoate] |  |  |  |  |  |  |  | 0.9 | 1.1 | 1.1 | 1.2 | 1.0 | 1.4 | 1.0 |
